From US20180303807A1, “ANDROGEN RECEPTOR LIGANDS” (DUKE UNIVERSITY, priority 2015, published 2018)
Residue numbers refer to the chain shown, from its start.

Experiments:
AR [1] = target: T1, AR (Homo sapiens, UniProt P10275); experiment: Reporter gene assay, AR transcriptional (MMTV-Luc) in CV1 cells; type: cell-based; settings: pcDNA-AR + MMTV-Luc, 0.1 nM R1881 plus test compound, 24 hrs, read-out: B1 = AR transcriptional IC50 (μM) in CV1 cells
T1 construct: expressed in transfected cells; host or cells: CV1 cells
T1 sequence (P10275 1-920): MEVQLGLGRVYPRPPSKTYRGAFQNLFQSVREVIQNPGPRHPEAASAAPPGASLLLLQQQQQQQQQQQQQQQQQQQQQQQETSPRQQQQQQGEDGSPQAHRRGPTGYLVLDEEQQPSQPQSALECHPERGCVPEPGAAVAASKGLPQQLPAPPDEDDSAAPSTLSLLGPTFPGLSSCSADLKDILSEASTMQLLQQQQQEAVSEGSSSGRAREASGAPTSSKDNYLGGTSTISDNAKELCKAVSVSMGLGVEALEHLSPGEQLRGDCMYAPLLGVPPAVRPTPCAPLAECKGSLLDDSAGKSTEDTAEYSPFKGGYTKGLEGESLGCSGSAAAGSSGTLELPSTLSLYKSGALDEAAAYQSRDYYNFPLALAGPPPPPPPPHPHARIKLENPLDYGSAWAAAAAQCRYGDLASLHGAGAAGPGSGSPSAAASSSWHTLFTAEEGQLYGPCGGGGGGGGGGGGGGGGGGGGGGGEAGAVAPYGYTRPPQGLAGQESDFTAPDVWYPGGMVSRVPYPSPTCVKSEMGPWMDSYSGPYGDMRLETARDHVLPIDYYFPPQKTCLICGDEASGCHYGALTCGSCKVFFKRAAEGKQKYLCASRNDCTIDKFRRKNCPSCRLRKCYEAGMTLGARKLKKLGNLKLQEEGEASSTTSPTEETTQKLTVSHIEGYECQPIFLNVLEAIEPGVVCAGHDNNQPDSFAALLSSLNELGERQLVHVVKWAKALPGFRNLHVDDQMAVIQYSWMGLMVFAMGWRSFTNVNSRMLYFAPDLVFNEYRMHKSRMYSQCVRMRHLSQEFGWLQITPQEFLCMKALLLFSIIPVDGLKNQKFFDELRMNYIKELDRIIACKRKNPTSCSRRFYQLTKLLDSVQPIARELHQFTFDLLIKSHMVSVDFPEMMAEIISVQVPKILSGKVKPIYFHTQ
Method: Reporter Gene Assay (IC50 determination, Table 2, B1-B3). CV1 cells were seeded into 96-well cell culture plates and transfected with Lipofectin. For AR transcriptional assays, the DNA mixture consisted of pcDNA-AR, MMTV-Luc (androgen responsive reporter gene), and Renilla-Luc (for assessing transfection efficiency and toxicity). Following overnight incubation, cells were induced with hormone (0.1 nM R1881 (synthetic AR agonist) plus increasing concentrations of test compound) for 24 hrs. Cells were lysed and luciferase activity was quantified using Dual Luciferase Reagent (DLR). IC50 determination was assessed using GraphPad Prism software.

AR [2] = target: T2, AR (Homo sapiens, UniProt P10275, T878A); experiment: In Cell Western AR degradation assay in LNCaP cells; type: cell-based; settings: 18 hrs, greater than 50% degradation at 10 μM (method says 20 μM)
T2 construct: endogenous in cells; host or cells: LNCaP cells
T2 sequence (P10275 1-920 T878A): T1 sequence (P10275 1-920) with T878A
Method: In Cell Western (AR degradation Assay, Table 2, B10). LNCaP cells were plated in 96-well clear bottom black plates (20K cells/well) in RPMI supplemented with 8% CFS. Following 48 hr incubation, cells were treated with hormone (20 μM test compound) for 18 hrs. Cells were fixed with formaldehyde (3.7%) and permeabilized using PBS (0.1% TRITON X-100). Cells were incubated with anti-AR antibody (N20, 1:2000), washed with PBS (0.1% Tween), and stained with 2nd antibody (Biotium CF770 goat anti-rabbit, 1:2000). AR protein expression was assessed using the LI-COR Odyssey imaging system. DRAQ5 (DNA stain, 1:10,000, Thermo Scientific) was used to normalize AR protein expression.
For B4-B7, scoring system is based on the relative AR target gene agonist/antagonist activity of test compounds when compared to benchmark compounds enzalutamide or bicalutamide. […] The lack of agonist activity is desirable for therapies intended to treat CRPC. For B4 and B6, a score of 1 indicates less agonism (highly desired activity) than benchmark compound enzalutamide, a score of 2 indicates equal agonism to enzalutamide (desirable), a score of 3 indicates agonism between enzalutamide and bicalutamide (less desirable activity), a score of 4 indicates equal agonism to bicalutamide (liability), and a score of 5 indicates higher agonism than bicalutamide (liability). For B5 and B7 a score of 1 indicates higher antagonist efficacy (highly desired activity) than benchmark compound enzalutamide, a score of 2 indicates equal antagonist efficacy to enzalutamide (desirable), a score of 3 indicates antagonist efficacy between enzalutamide and bicalutamide (less desirable activity), a score of 4 indicates antagonist efficacy equal to bicalutamide (liability), and a score of 5 indicates antagonist efficacy worse than bicalutamide (liability) For B9, Compounds that degrade AR (greater than 50% degradation at 10 μM) are indicated.

| IC50 (AR [1]) [µM] | SMILES | B9 = AR degradation in LNCaP cells (In-Cell Western) (AR [2]) |
| --- | --- | --- |
| 0.8 | CC1(C)CC(=O)C2=C(C1)Nc1ccc3cccnc3c1C2c1ccc(F)c(F)c1 (racemic) [Compound A96, (±)-12-(3,4-difluorophenyl)-9,9-dimethyl-8,9,10,12-tetrahydrobenzo[j][1,7]phenanthrolin-11(7H)-one] | Degrader (Compounds that degrade AR (greater than 50% degradation at 10 μM) are indicated) |
| > 10 | CC1(C)CC(=O)C2=C(C1)Nc1cc(N3CCCC3)ccc1C2c1ccc(Cl)s1 (racemic) [Compound A97, (±)-9-(5-chlorothiophen-2-yl)-3,3-dimethyl-6-(pyrrolidin-1-yl)-3,4,9,10-tetrahydroacridin-1(2H)-one] | Degrader (Compounds that degrade AR (greater than 50% degradation at 10 μM) are indicated) |
| 0.5 | CC1(C)CC(=O)C2=C(C1)Nc1ccc3nccnc3c1C2c1ccc(Br)s1 (racemic) [Compound A100, (±)-12-(5-bromothiophen-2-yl)-9,9-dimethyl-8,9,10,12-tetrahydropyrazino[2,3-a]acridin-11(7H)-one] | Degrader (Compounds that degrade AR (greater than 50% degradation at 10 μM) are indicated) |
| 0.8 | CC1(C)CC(=O)C2=C(C1)Nc1ccc3ncncc3c1C2c1ccc(Cl)s1 (racemic) [Compound A101, (±)-12-(5-chlorothiophen-2-yl)-9,9-dimethyl-8,9,10,12-tetrahydropyrimido[5,4-a]acridin-11(7H)-one] | Degrader (Compounds that degrade AR (greater than 50% degradation at 10 μM) are indicated) |
| 0.4 | CC1(C)CC(=O)C2=C(C1)Nc1ccc3ncncc3c1C2c1ccc(Br)s1 (racemic) [Compound A102, (±)-12-(5-bromothiophen-2-yl)-9,9-dimethyl-8,9,10,12-tetrahydropyrimido[5,4-a]acridin-11(7H)-one] | Degrader (Compounds that degrade AR (greater than 50% degradation at 10 μM) are indicated) |
| 0.3 | Cc1ccc(C2C3=C(CC(C)(C)CC3=O)Nc3ccc4ncccc4c32)s1 (racemic) [Compound A103, (±)-9,9-dimethyl-12-(5-methylthiophen-2-yl)-8,9,10,12-tetrahydrobenzo[b][4,7]phenanthrolin-11(7H)-one] | Degrader (Compounds that degrade AR (greater than 50% degradation at 10 μM) are indicated) |
| 6 | CC1(C)CC(=O)C2=C(C1)Nc1ccc3ncccc3c1C2c1cc(C(F)(F)F)cc(C(F)(F)F)c1 (stereo not drawn) [Compound A50] | Degrader (Compounds that degrade AR (greater than 50% degradation at 10 μM) are indicated) |
| 1.2 | CC1(C)CC(=O)C2=C(C1)Nc1ccc3ccccc3c1C2c1ccc([N+](=O)[O-])cc1 (stereo not drawn) [Compound A51, 9,9-dimethyl-12-(4-nitrophenyl)-8,9,10,12-tetrahydrobenzo[a]acridin-11(7H)-one] | Degrader (Compounds that degrade AR (greater than 50% degradation at 10 μM) are indicated) |
| > 10 | CC1(C)CC(=O)C2=C(C1)Nc1ccc3ncccc3c1C2c1ccc(C#N)cc1 (stereo not drawn) [Compound A55] | Degrader (Compounds that degrade AR (greater than 50% degradation at 10 μM) are indicated) |
| > 10 | CC1(C)CC(=O)C2=C(C1)Nc1ccc3ncccc3c1C2c1ccccn1 (stereo not drawn) [Compound A57, 9,9-dimethyl-12-(pyridin-2-yl)-8,9,10,12-tetrahydrobenzo[b][4,7]phenanthrolin-11(7H)-one] | Degrader (Compounds that degrade AR (greater than 50% degradation at 10 μM) are indicated) |
| > 10 | CC1(C)CC(=O)C2=C(C1)Nc1ccc3c(c1C2c1ccc(F)c(F)c1)OCO3 (stereo not drawn) [Compound A59] | Degrader (Compounds that degrade AR (greater than 50% degradation at 10 μM) are indicated) |
| 1.7 | CC1(C)CC(=O)C2=C(C1)Nc1ccc3ncccc3c1C2c1csc([N+](=O)[O-])c1 (stereo not drawn) [Compound A60] | Degrader (Compounds that degrade AR (greater than 50% degradation at 10 μM) are indicated) |
| 1.8 | CC1(C)CC(=O)C2=C(C1)Nc1ccc3ncccc3c1C2c1cc(Br)cs1 (stereo not drawn) [Compound A61] | Degrader (Compounds that degrade AR (greater than 50% degradation at 10 μM) are indicated) |
| > 10 | CC1(C)CC(=O)C2=C(C1)Nc1ccc3ncccc3c1C2c1sccc1Br (stereo not drawn) [Compound A62] | Degrader (Compounds that degrade AR (greater than 50% degradation at 10 μM) are indicated) |
| 1.9 | CC1(C)CC(=O)C2=C(C1)Nc1ccc3ncccc3c1C2c1ccc(Br)s1 (stereo not drawn) [Compound A63] | Degrader (Compounds that degrade AR (greater than 50% degradation at 10 μM) are indicated) |
| 1.9 | CC1(C)CC(=O)C2=C(C1)Nc1ccc3ncccc3c1C2c1ccc(Cl)s1 (stereo not drawn) [Compound A64] | Degrader (Compounds that degrade AR (greater than 50% degradation at 10 μM) are indicated) |
| > 10 | CC1(C)CC(=O)C2=C(C1)Nc1ccc3ncccc3c1C2c1nccs1 (stereo not drawn) [Compound A67] | Degrader (Compounds that degrade AR (greater than 50% degradation at 10 μM) are indicated) |
| > 10 | CC1(C)CC(=O)C2=C(C1)Nc1ccc3ncccc3c1C2c1c[nH]c2ccc(F)cc12 (stereo not drawn) [Compound A68] | Degrader (Compounds that degrade AR (greater than 50% degradation at 10 μM) are indicated) |
